Literature values, collected in patent US20190381039A1, “USE OF sGC STIMULATORS FOR THE TREATMENT OF ESOPHAGEAL MOTILITY DISORDERS” (Cyclerion Therapeutics, Inc., priority 2016, published 2019).

Assays:
[1] = system: patients with idiopathic achalasia
[2] = system: patients with esophageal motility abnormalities
[3] = report from 2000, patients with esophageal dysmotility

Row | SMILES | utility in achalasia patients (off label) ([1]; Bortolotti et al., Gastroenterology 118(2): 253-7, 2000) | side effects reported by patients ([1]; report from 2000) | LES pressure [1, 3] | clinical symptoms [1, 3] | relief of chest pain [2]
1 | CCCc1nn(C)c2c(=O)[nH]c(-c3cc(S(=O)(=O)N4CCN(C)CC4)ccc3OCC)nc12 [sildenafil] | some limited utility | dizziness and headaches | able to reduce LES pressure | clinical symptoms were not improved | 
2 | O=c1n(CCCN2CCN(c3cccc(Cl)c3)CC2)nc2ccccn12 [trazodone] |  |  |  |  | effective in relieving chest pain
3 | CN(C)CCCN1c2ccccc2CCc2ccccc21 [imipramine] |  |  |  |  | effective in relieving chest pain
